Results on 26 compounds are retold here after patent publication US9561228B2 (Celgene Avilomics Research, Inc., priority 2013, dated 2017).

In test [1] the test system is ERK1/2 phosphorylation of p90RSK in HCT116 cells. Put plainly: Detection of total and phospho-RSK by MSD ELISA (HCT116). In kind it is cell-based. Particulars: Homo sapiens, HCT-116, read-out: ERK1/ERK2 PRSK HCT116 EC50. Put shortly: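 ERK1/2 activity read in cells as p90RSK phosphorylation: lysates from HCT116 cells given compound for 2 h at 37° C were captured on MSD plates. Detection used a pSer380 RSK or a total RSK antibody with SulfoTag secondaries.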
(In general: In an ELISA, binding on a coated surface is turned into a signal by an enzyme label.)

In test [2] the test system is ERK1/2 phosphorylation of p90RSK in A375 cells. The test is described as follows: Detection of total and phosphor-RSK by MSD ELISA (A375). In kind it is cell-based. To be noted: Homo sapiens, A-375, read-out: ERK1/ERK2 PRSK A375 EC50. Put shortly:
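Electrochemiluminescent MSD ELISA: common RSK capture antibody, with pRSK Ser380 or total RSK detection antibodies plus SulfoTag secondaries. Samples were lysates of A375 cells exposed to compound for 2 h at 37° C after overnight culture in 0.1% FBS DMEM.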

On to `C=CC(=O)Nc1cc(OC)ccc1Nc1nc(Nc2cc(OC)nc(N3CCN(C)CC3)c2)ncc1C(F)(F)F` [Compound I-334, N-(5-methoxy-2-((2-((2-methoxy-6-(4-methylpiperazin-1-yl)pyridin-4-yl)amino)-5-(trifluoromethyl)pyrimidin-4-yl)amino)phenyl)acrylamide], for which the EC50 in test [1] and in test [2] was less than 100 nM in each case.
In the case of `C=CC(=O)Nc1cc(C)ccc1Nc1nc(Nc2cc(N[C@H]3CC[C@@H](O)CC3)nc(OC)c2)ncc1C(F)(F)F` [Compound I-326, N-(2-((2-((2-((cis-4-hydroxycyclohexyl)amino)-6-methoxypyridin-4-yl)amino)-5-(trifluoromethyl)pyrimidin-4-yl)amino)-5-methylphenyl)acrylamide], the EC50 in test [1] and in test [2] was less than 100 nM each time.
For the compound `C=CC(=O)Nc1cc(C)ccc1Nc1nc(Nc2cc(OC)ccc2C)ncc1C(F)(F)F` [Compound I-341, N-(2-((2-((5-methoxy-2-methylphenyl)amino)-5-(trifluoromethyl)pyrimidin-4-yl)amino)-5-methylphenyl)acrylamide], the EC50 in test [1] and in test [2] was more than 1000 nM each time.
In the case of `C=CC(=O)Nc1ccccc1Nc1nc(Nc2cc(F)ccc2C)ncc1C(F)(F)F` [Compound I-285, N-(2-((2-((5-Fluoro-2-methylphenyl)amino)-5-(trifluoromethyl)pyrimidin-4-yl)amino)phenyl)acrylamide], the EC50 in test [1] and in test [2] was more than 1000 nM in each case.
`C=CC(=O)Nc1ccccc1Nc1nc(Nc2cc(NCCOC)nc(OC)c2)ncc1C(F)(F)F` [Compound I-286, N-(2-((2-((2-Methoxy-6-((2-methoxyethyl)amino)pyridin-4-yl)amino)-5-(trifluoromethyl)pyrimidin-4-yl)amino)phenyl)acrylamide]: the EC50 in test [1] and in test [2] was less than 100 nM each time.
Consider `C=CC(=O)Nc1ccccc1Nc1nc(Nc2cc(OC)nc(OC)c2)ncc1C(F)(F)F` [Compound I-95, N-(2-((2-((2,6-Dimethoxypyridin-4-yl)amino)-5-(trifluoromethyl)pyrimidin-4-yl)amino)phenyl)acrylamide], for which, in test [2], the EC50 is less than 100 nM.
Same read-out and setting: next, `C=CC(=O)Nc1cc(C)ccc1Nc1nc(Nc2cc(OC)nc(N3CCOCC3)c2)ncc1C(F)(F)F` [Compound I-94, N-(2-((2-((2-Methoxy-6-morpholinopyridin-4-yl)amino)-5-(trifluoromethyl)pyrimidin-4-yl)amino)-5-methylphenyl)acrylamide]: 101 to 500 nM.
For the compound `C=CC(=O)Nc1cc(C)ccc1Nc1nc(Nc2cc(C)nc(OC)c2)ncc1C(F)(F)F` [Compound I-295, N-(2-((2-((2-methoxy-6-methylpyridin-4-yl)amino)-5-(trifluoromethyl)pyrimidin-4-yl)amino)-5-methylphenyl)acrylamide], the EC50 in test [1] and in test [2] was less than 100 nM each time.
As to `C=CC(=O)Nc1ccccc1Nc1nc(Nc2cc(OC)nc(N3CCS(=O)(=O)CC3)c2)ncc1C(F)(F)F` [Compound I-291, N-(2-((2-((2-(1,1-Dioxidothiomorpholino)-6-methoxypyridin-4-yl)amino)-5-(trifluoromethyl)pyrimidin-4-yl)amino)phenyl)acrylamide], the EC50 in test [1] and in test [2] was less than 100 nM throughout.
Take `C=CC(=O)Nc1cc(OC)ccc1Nc1nc(Nc2cc(OC)ncc2C)ncc1Cl` [Compound I-242, N-(2-((5-chloro-2-((2-methoxy-5-methylpyridin-4-yl)amino)pyrimidin-4-yl)amino)-5-methoxyphenyl)acrylamide]: the values for the EC50 in test [1] and in test [2] were more than 1000 nM and less than 100 nM, respectively.
For `C=CC(=O)Nc1ccccc1Nc1nc(Nc2cc(OC)cc(OC)c2)ncc1C(F)(F)F` [Compound I-338, N-(2-((2-((3,5-dimethoxyphenyl)amino)-5-(trifluoromethyl)pyrimidin-4-yl)amino)phenyl)acrylamide], in that order: less than 100 nM and less than 100 nM.
For `C=CC(=O)Nc1ccccc1Nc1nc(Nc2cc(OC)nc(N3CCCC3)c2)ncc1C(F)(F)F` [Compound I-281, N-(2-((2-((2-Methoxy-6-(pyrrolidin-1-yl)pyridin-4-yl)amino)-5-(trifluoromethyl)pyrimidin-4-yl)amino)phenyl)acrylamide], in that order: less than 100 nM and less than 100 nM.
On to `C=CC(=O)Nc1cc(C)ccc1Nc1nc(Nc2cc(OC)ncc2C)ncc1C(F)(F)F` [Compound I-90, N-(2-((2-((2-Methoxy-5-methylpyridin-4-yl)amino)-5-(trifluoromethyl)pyrimidin-4-yl)amino)-5-methylphenyl)acrylamide], for which the figures for the EC50 in test [1] and in test [2] were 101 to 500 nM and less than 100 nM, respectively.
Regarding `C=CC(=O)Nc1cc(C)ccc1Nc1nc(Nc2cc(OC)nc(N3CCN(CC)CC3)c2)ncc1C(F)(F)F` [Compound I-89, N-(2-((2-((2-(4-Ethylpiperazin-1-yl)-6-methoxypyridin-4-yl)amino)-5-(trifluoromethyl)pyrimidin-4-yl)amino)-5-methylphenyl)acrylamide], the EC50 in test [2] lay in the range of 101 to 500 nM.
Turning to `C=CC(=O)Nc1ccccc1Nc1nc(Nc2cc(OC)nc(N3CCCCC3)c2)ncc1C(F)(F)F` [Compound I-282, N-(2-((2-((2-Methoxy-6-(piperidin-1-yl)pyridin-4-yl)amino)-5-(trifluoromethyl)pyrimidin-4-yl)amino)phenyl)acrylamide], the EC50 in test [1] and in test [2] was less than 100 nM throughout.
On to `C=CC(=O)Nc1ccccc1Nc1nc(Nc2cc(C(N)=O)ccc2C)ncc1C(F)(F)F` [Compound I-68, 3-(4-(2-Acrylamidophenylamino)-5-(trifluoromethyl)pyrimidin-2-ylamino)-4-methylbenzamide], for which, in test [2], the EC50 was in the range of 101 to 500 nM.
For `C=CS(=O)(=O)Nc1cc(C)ccc1Nc1nc(Nc2cc(OC)ncc2C)ncc1C(F)(F)F` [Compound I-333, N-(2-((2-((2-methoxy-5-methylpyridin-4-yl)amino)-5-(trifluoromethyl)pyrimidin-4-yl)amino)-5-methylphenyl)ethenesulfonamide], the EC50 was more than 1000 nM in test [1] and 101 to 500 nM in test [2].
For `C=CC(=O)Nc1ccccc1Nc1nc(Nc2cc(OC)nc(OCCOC)c2)ncc1C(F)(F)F` [Compound I-283, N-(2-((2-((2-Methoxy-6-(2-methoxyethoxyl)pyridin-4-yl)amino)-5-(trifluoromethyl)pyrimidin-4-yl)amino)phenyl)acrylamide], in that order: less than 100 nM and less than 100 nM.
As to `C=CC(=O)Nc1ccccc1Nc1nc(Nc2cc(OC)ccc2C)ncc1C(F)(F)F` [Compound I-340, N-(2-((2-((5-methoxy-2-methylphenyl)amino)-5-(trifluoromethyl)pyrimidin-4-yl)amino)phenyl)acrylamide], the results for the EC50 in test [1] and in test [2] were 101 to 500 nM and less than 100 nM, respectively.
For `C=CC(=O)Nc1cc(C)ccc1Nc1nc(Nc2cc(OC)nc(N(C)CCOC)c2)ncc1C(F)(F)F` [Compound I-336, N-(2-((2-((2-methoxy-6-((2-methoxyethyl)(methyl)amino)pyridin-4-yl)amino)-5-(trifluoromethyl)pyrimidin-4-yl)amino)-5-methylphenyl)acrylamide], in that order: 101 to 500 nM and 101 to 500 nM.
For `C=CC(=O)Nc1cc(C)ccc1Nc1nc(Nc2cc(OC)nc(N3CC(O)C3)c2)ncc1C(F)(F)F` [Compound I-328, N-(2-((2-((2-(3-hydroxyazetidin-1-yl)-6-methoxypyridin-4-yl)amino)-5-(trifluoromethyl)pyrimidin-4-yl)amino)-5-methylphenyl)acrylamide], in that order: less than 100 nM and less than 100 nM.
In the case of `C=CC(=O)Nc1cc(C)ccc1Nc1nc(Nc2cc(NC3CC3)nc(OC)c2)ncc1C(F)(F)F` [Compound I-337, N-(2-((2-((2-(cyclopropylamino)-6-methoxypyridin-4-yl)amino)-5-(trifluoromethyl)pyrimidin-4-yl)amino)-5-methylphenyl)acrylamide], the EC50 in test [1] and in test [2] was less than 100 nM each time.
As for `C=CC(=O)Nc1cc(OC)ccc1Nc1nc(Nc2cc(OC)nc(N3CCN(CC)CC3)c2)ncc1C(F)(F)F` [Compound I-88, N-(2-((2-((2-(4-Ethylpiperazin-1-yl)-6-methoxypyridin-4-yl)amino)-5-(trifluoromethyl)pyrimidin-4-yl)amino)-5-methoxyphenyl)acrylamide], the EC50 in test [2] fell in the range of 101 to 500 nM.
For `C=CC(=O)Nc1cc(C)ccc1Nc1nc(Nc2cc(OC)nc(N(C)C3CC3)c2)ncc1C(F)(F)F` [Compound I-342, N-(2-((2-((2-(cyclopropyl(methyl)amino)-6-methoxypyridin-4-yl)amino)-5-(trifluoromethyl)pyrimidin-4-yl)amino)-5-methylphenyl)acrylamide], the EC50 in test [1] and in test [2] was 101 to 500 nM throughout.
As for `C=CC(=O)Nc1cc(OC)ccc1Nc1nc(N[C@H]2CCCN(C(=O)CO)C2)ncc1C(F)(F)F` [Compound I-64, (S)—N-(2-((2-((1-(2-Hydroxyacetyl)piperidin-3-yl)amino)-5-(trifluoromethyl)pyrimidin-4-yl)amino)-5-methoxyphenyl)acrylamide], the EC50 in test [2] is 101 to 500 nM.
On the same count and under the same terms, in the case of `C=CC(=O)Nc1cc(C)ccc1Nc1nc(N[C@H]2CCCN(C(=O)CO)C2)ncc1Cl` [Compound I-140, (S)—N-(2-((5-chloro-2-((1-(2-hydroxyacetyl)piperidin-3-yl)amino)pyrimidin-4-yl)amino)-5-methylphenyl)acrylamide] it was less than 100 nM.
